PubChem BioAssay AID1963960 (Molecular Pharmacology Branch, DTP, NCI, 2024)

Tested on: MDA-MB-468 spheroids with HUVEC/MSC, viability
Assay: Anticancer human tumor MDA-MB-468 cell line growth inhibition [PI3K];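 also: spheroids exposed to agents for seven days before readout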;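 as to viability, T/C: 100% = DMSO vehicle control viability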
Conditions: for IC50: curve of first compound; for viability, T/C: stronger effect = lower value; active = viability on the fitted dose curve at most 10% of control; inactive = the rest
Summary of the method: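 Targeted small molecules plus PI3K inhibitors, half-log dose series from Cmax (default top 10 microM), were applied to heterotypic spheroids of cancer cells with HUVEC and MSCs. Viability indicated growth inhibition.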

[1] = second compound 0.0316 µM, first compound 0.0316 µM
[2] = second compound 0.0316 µM, first compound 0.1 µM
[3] = second compound 0.0316 µM, first compound 0.316 µM
[4] = second compound 0.0316 µM, first compound 1 µM
[5] = second compound 0.0316 µM, first compound 3.16 µM
[6] = second compound 0.0316 µM, first compound 10 µM
[7] = second compound 0.1 µM, first compound 0.0316 µM
[8] = second compound 0.1 µM, first compound 0.1 µM
[9] = second compound 0.1 µM, first compound 0.316 µM
[10] = second compound 0.1 µM, first compound 1 µM
[11] = second compound 0.1 µM, first compound 3.16 µM
[12] = second compound 0.1 µM, first compound 10 µM
[13] = second compound 0.316 µM, first compound 0.0316 µM
[14] = second compound 0.316 µM, first compound 0.1 µM
[15] = second compound 0.316 µM, first compound 0.316 µM
[16] = second compound 0.316 µM, first compound 1 µM
[17] = second compound 0.316 µM, first compound 3.16 µM
[18] = second compound 0.316 µM, first compound 10 µM
[19] = second compound 1 µM, first compound 0.0316 µM
[20] = second compound 1 µM, first compound 0.1 µM
[21] = second compound 1 µM, first compound 0.316 µM
[22] = second compound 1 µM, first compound 1 µM
[23] = second compound 1 µM, first compound 3.16 µM
[24] = second compound 1 µM, first compound 10 µM
[25] = second compound 3.16 µM, first compound 0.0316 µM
[26] = second compound 3.16 µM, first compound 0.1 µM
[27] = second compound 3.16 µM, first compound 0.316 µM
[28] = second compound 3.16 µM, first compound 1 µM
[29] = second compound 3.16 µM, first compound 3.16 µM
[30] = second compound 3.16 µM, first compound 10 µM
[31] = second compound 10 µM, first compound 0.0316 µM
[32] = second compound 10 µM, first compound 0.1 µM
[33] = second compound 10 µM, first compound 0.316 µM
[34] = second compound 10 µM, first compound 1 µM
[35] = second compound 10 µM, first compound 3.16 µM
[36] = second compound 10 µM, first compound 10 µM

CC1(C)CCC(CN2CCN(c3ccc(C(=O)NS(=O)(=O)c4ccc(NCC5CCOCC5)c([N+](=O)[O-])c4)c(Oc4cnc5[nH]ccc5c4)c3)CC2)=C(c2ccc(Cl)cc2)C1 + Cc1nc(NC(=O)N2CCCC2C(N)=O)sc1-c1ccnc(C(C)(C)C(F)(F)F)c1
< 0.0316 µM: IC50 (second compound 10 µM)
2.12 µM: IC50 (second compound 3.16 µM)
4.59 µM: IC50 (second compound 0.1 µM)
inactive: viability, T/C [1] 93.8% | viability, T/C [2] 110% | viability, T/C [3] 85.9% | viability, T/C [4] 103% | viability, T/C [5] 61% | viability, T/C [7] 85.3% | viability, T/C [8] 92.4% | viability, T/C [9] 80.2% | viability, T/C [10] 104% | viability, T/C [11] 69.9% | viability, T/C [13] 110% | viability, T/C [14] 105% | viability, T/C [15] 97.5% | viability, T/C [16] 88.7% | viability, T/C [17] 50.2% | viability, T/C [19] 99.7% | viability, T/C [20] 72.3% | viability, T/C [21] 99.9% | viability, T/C [22] 85.4% | viability, T/C [23] 58.1% | viability, T/C [25] 77.8% | viability, T/C [26] 61.8% | viability, T/C [27] 54% | viability, T/C [28] 66.3% | viability, T/C [29] 43.3% | viability, T/C [31] 35.2% | viability, T/C [32] 27.1% | viability, T/C [33] 35.2% | viability, T/C [34] 32.4% | viability, T/C [35] 24.9% | viability, T/C [36] 8.18%
active: viability, T/C [6] 8.14% | viability, T/C [12] 8.59% | viability, T/C [18] 7.04% | viability, T/C [24] 7.9% | viability, T/C [30] 9.97%
3.8 µM: IC50 (second compound 1 µM)
3.26 µM: IC50 (second compound 0.316 µM)
4.01 µM: IC50 (second compound 0.0316 µM)

CCCS(=O)(=O)Nc1ccc(F)c(C(=O)c2c[nH]c3ncc(-c4ccc(Cl)cc4)cc23)c1F + Cc1nc(NC(=O)N2CCCC2C(N)=O)sc1-c1ccnc(C(C)(C)C(F)(F)F)c1
active: viability, T/C [18] 9.77%
5.12 µM: IC50 (second compound 0.0316 µM)
< 0.0316 µM: IC50 (second compound 10 µM)
3.55 µM: IC50 (second compound 0.316 µM)
inactive: viability, T/C [1] 89.5% | viability, T/C [2] 95.7% | viability, T/C [3] 91.2% | viability, T/C [4] 104% | viability, T/C [5] 76.8% | viability, T/C [6] 12.9% | viability, T/C [7] 92.8% | viability, T/C [8] 97.5% | viability, T/C [9] 93.6% | viability, T/C [10] 97% | viability, T/C [11] 59.5% | viability, T/C [12] 11.6% | viability, T/C [13] 103% | viability, T/C [14] 86.5% | viability, T/C [15] 80.5% | viability, T/C [16] 105% | viability, T/C [17] 54.6% | viability, T/C [19] 113% | viability, T/C [20] 76.1% | viability, T/C [21] 63.9% | viability, T/C [22] 70.8% | viability, T/C [23] 49.3% | viability, T/C [24] 9.67% | viability, T/C [25] 72.3% | viability, T/C [26] 61% | viability, T/C [27] 67.9% | viability, T/C [28] 62.9% | viability, T/C [29] 36.9% | viability, T/C [30] 10% | viability, T/C [31] 43% | viability, T/C [32] 28.2% | viability, T/C [33] 36.4% | viability, T/C [34] 31.1% | viability, T/C [35] 26.2% | viability, T/C [36] 7.64%
1.78 µM: IC50 (second compound 3.16 µM)
3.97 µM: IC50 (second compound 0.1 µM)
1.44 µM: IC50 (second compound 1 µM)

CNC(=O)c1ccc(N2C(=S)N(c3ccc(C#N)c(C(F)(F)F)c3)C(=O)C2(C)C)cc1F + Cc1nc(NC(=O)N2CCCC2C(N)=O)sc1-c1ccnc(C(C)(C)C(F)(F)F)c1
4.9 µM: IC50 (second compound 3.16 µM)
inactive: viability, T/C [1] 96.8% | viability, T/C [2] 97.2% | viability, T/C [3] 83.9% | viability, T/C [4] 114% | viability, T/C [5] 97.4% | viability, T/C [6] 62.5% | viability, T/C [7] 92.4% | viability, T/C [8] 101% | viability, T/C [9] 96.2% | viability, T/C [10] 106% | viability, T/C [11] 82.8% | viability, T/C [12] 52.2% | viability, T/C [13] 99.8% | viability, T/C [14] 78.2% | viability, T/C [15] 73.3% | viability, T/C [16] 103% | viability, T/C [17] 74.6% | viability, T/C [18] 59% | viability, T/C [19] 97% | viability, T/C [20] 76.9% | viability, T/C [21] 67.4% | viability, T/C [22] 90.5% | viability, T/C [23] 59.2% | viability, T/C [24] 58% | viability, T/C [25] 79.8% | viability, T/C [26] 64.5% | viability, T/C [27] 65.3% | viability, T/C [28] 74.8% | viability, T/C [29] 49.4% | viability, T/C [30] 42.5% | viability, T/C [31] 39.8% | viability, T/C [32] 28.3% | viability, T/C [33] 35.4% | viability, T/C [34] 29.4% | viability, T/C [35] 25.2% | viability, T/C [36] 25.6%
< 0.0316 µM: IC50 (second compound 10 µM)
> 10 µM: IC50 (second compound 0.0316 µM) | IC50 (second compound 0.1 µM) | IC50 (second compound 0.316 µM) | IC50 (second compound 1 µM)
